Data published in patent publication US20130225627A1, “DEXTROMETHORPHAN ANTITUSSIVE COMPOSITIONS” (Trinity Laboratories, Inc., priority 2010, published 2013).
Where a name gives a salt, the structure may show the parent alone. Read-outs that look alike come from different tables or passages of the source.

Legend:
rats [1] = tested on: rats
[2] = in vivo; cited from earlier work
females = details: cited from earlier work; for mean plasma bromide concentration at the end of the treatment: three menstrual cycles
[3] = rats, cited from earlier work
[4] = after oral ingestion; cited from earlier work
rats [5] = details: cited from earlier work
[6] = Ames test; cited from earlier work
[7] = cited from earlier work
[8] = Solubility of dextromethorphan hydrochloride in water; details: at the pH of the compositions of the present invention
Excerpt: However, the compositions of the invention may contain sufficient levels of one or more cosolvents. Preferred cosolvents for this purpose include ethanol, propylene glycol, polyethylene glycol, glycerin, and sorbitol; more preferred cosolvents include ethanol, propylene glycol and glycerin.

thyroid gland = details: rats, diets containing 4800 or 19200 ppm NaBr; as soon as 3 days, constant during 12 weeks; cited from earlier work
healthy volunteers = details: cited from earlier work
rats [9] = details: cited from earlier work; remark: listed apart in the source

## Br [Bromide]
Rats [1]; equivalent daily dose
  No Observable Adverse Effect Level (NOAEL), effects on the thyroid: 12 mg bromide/kg/day
Rats [1]; expressed as bromide
  No Observable Adverse Effect Level (NOAEL), effects on the thyroid: 240 ppm
[2]
  half life: 9 to 12 days
females; 4 mg Br/kg/day
  mean plasma bromide concentration at the end of the treatment: 3.22 mmol/L
females; 9 mg Br/kg/day
  mean plasma bromide concentration at the end of the treatment: 7.99 mmol/L
  quantitative analysis of the electroencephalogram (EEG): only a marginal effect
females; 4 and 9 mg Br/kg/day
  clinical observation: effects on the thyroid or on the central nervous system: did not show effects
  serum thyroxine, free thyroxine, triiodothyronine, thyrotropin and thyroxine-binding globulin: In none of the three groups were significant changes observed
[3]; chloride-free diet
  half-life: 25 days
[3]; normal
  half-life: three
[4]
  absorption in the gastrointestinal tract: rapidly and completely absorbed
Rats [5]; short-term toxicity studies, higher doses
  central nervous system effects: motor incoordination of the hind legs and inhibition of grooming
[6]
  mutagenicity: not mutagenic

## COc1ccc2c(c1)[C@]13CCCC[C@@H]1[C@H](C2)N(C)CC3 [Dextromethorphan Hydrobromide]
[7]; at 20° C.
  solubility: about 1.5 weight percent
[7]; at 85° C.
  solubility: about 25 wt. %

## COc1ccc2c(c1)[C@]13CCCC[C@@H]1[C@H](C2)N(C)CC3 [Dextromethorphan hydrochloride]
[8]
  solubility in water: highly soluble

## [Br-].[Na+] [sodium bromide]
Thyroid gland
  thyroxine concentrations: significantly decreased
Healthy volunteers; 9 mg Br/kg/day, within normal limits
  neurophysiological data (EEG and visual evoked response): shifts in the power of various spectral bands and a shift in mean frequency
Healthy volunteers; 4 or 9 mg Br/kg/day, start versus end of study
  medical history, physical examination, haematology, clinical chemistry and urine analyses: Except for incidental nausea, no changes were observed
Healthy volunteers; 4 or 9 mg Br/kg/day
  serum free thyroxine, thyroxine-binding globulin, cortisol, oestradiol, progesterone, testosterone, thyrotropin, prolactin, LH, FSH: No changes were observed
Healthy volunteers; females, 4 mg Br/kg/day oral, three full cycles
  mean plasma bromide concentration at the end of treatment: 3.05 mmol/L
Healthy volunteers; females, 9 mg Br/kg/day oral, three full cycles
  mean plasma bromide concentration at the end of treatment: 4.93 mmol/L
Healthy volunteers; females, 9 mg Br/kg/day, all concentrations within normal limits
  serum thyroxine and triiodothyronine at the end of the study compared to pre-administration values: significant increase
Healthy volunteers; males, 4 mg Br/kg/day oral, 12 weeks
  mean plasma bromide concentration at the end of treatment: 2.14 millimoles/liter
Healthy volunteers; males, 9 mg Br/kg/day oral, 12 weeks
  mean plasma bromide concentration at the end of treatment: 4.30 millimoles/liter
Rats [9]; 1200 ppm
  effects on reproduction: no effects on reproduction were observed
Rats [9]; 4800 ppm
  fertility and viability of the offspring: reduced
Rats [9]; 19200 ppm sodium bromide, reversible
  fertility: complete infertility
Rats [5]; expressed as sodium bromide
  No Observable Adverse Effect Level (NOAEL), effects on the thyroid: 300 ppm
Rats [5]; special studies
  levels of thyroxine, growth hormone, testosterone and corticosterone: decreased levels
  thyroid-stimulating hormone (TSH) and insulin: increased
